# Reference: ChEMBL document CHEMBL1255340, “In vitro activities of the Rx-01 oxazolidinones against hospital and community pathogens” (2008)
# “And” between values parts separate entries of the source, which are not always exact repeats. Identical values can stand only once.
# Legend:
# Format in all cases: functional
# Chlamydia trachomatis = assay: Antimicrobial activity against Chlamydia trachomatis isolated from human respiratory tract by broth microdilution method
# Chlamydia pneumoniae = assay: Antimicrobial activity against Chlamydophila pneumoniae isolated from human respiratory tract by broth microdilution method
# Metamycoplasma hominis = assay: Antimicrobial activity against Mycoplasma hominis isolated from human respiratory tract by broth microdilution method
smiles,measurement,setting,value
CC[C@H]1OC(=O)[C@H](C)[C@@H](O[C@H]2C[C@@](C)(OC)[C@@H](O)[C@H](C)O2)[C@H](C)[C@@H](O[C@@H]2O[C@H](C)C[C@H](N(C)C)[C@H]2O)[C@](C)(O)C[C@@H](C)C(=O)[C@H](C)[C@@H](O)[C@]1(C)O [ERYTHROMYCIN],MIC,Chlamydia trachomatis,0.12 µg/mL and 0.25 µg/mL
same,MIC,Chlamydia pneumoniae,0.5 µg/mL
same,MIC,Metamycoplasma hominis,16 µg/mL and 32 µg/mL
